Measured values taken from patent US10023528B2, “Branched 3-phenylpropionic acid derivatives and their use” (BAYER INTELLECTUAL PROPERTY GMBH, priority 2011, dated 2018).

Columns and labels:
[1] = target: recombinant soluble guanylate cyclase (sGC), haem-free (Rattus norvegicus (Rat), UniProt P20595); assay: Stimulation of recombinant soluble guanylate cyclase (sGC) in vitro, haem-free enzyme; format: biochemical; details: n = 5
Procedure: Investigations on the stimulation of recombinant soluble guanylate cyclase (sGC) by the compounds according to the invention with and without sodium nitroprusside, and with and without the haem-dependent sGC inhibitor 1H-1,2,4-oxadiazolo[4,3a]quinoxalin-1-one (ODQ), are carried out by the method described in detail in the following reference: M. Hoenicka, E. M. Becker, H. Apeler, T. Sirichoke. H. Schroeder, R. Gerzer and J.-P. Stasch, “Purified soluble guanylyl cyclase expressed in a baculovirus/Sf9 system: Stimulation by YC-1, nitric oxide, and […]”, J. Mol. Med. 77 (1999), 14-23. The haem-free guanylate cyclase is obtained by adding Tween 20 to the sample buffer (0.5% in the final concentration).
(§1) The activation of sGC by a test substance is reported as x-fold stimulation of the basal activity.

saphenous artery rings = assay: Vasorelaxant effect in vitro (phenylephrine-contracted saphenous artery rings); format: cell-based; details: Oryctolagus cuniculus; rabbit saphenous artery rings, phenylephrine-induced contraction
Procedure: Rabbits are anaesthetized and sacrificed by intravenous injection of thiopental sodium (about 50 mg/kg) and exsanguinated. The saphenous artery is removed and divided into rings 3 mm wide. The rings are mounted singly on in each case a pair of triangular hooks open at the end and made of 0.3 mm-thick special wire (Remanium®). Each ring is placed under an initial tension in 5 ml organ baths with Krebs-Henseleit solution which is at 37° C., is gassed with carbogen and has the following composition: NaCl 119 mM; KCl 4.8 mM; CaCl2×2 H2O 1 mM; MgSO4×7 H2O 1.4 mM; KH2PO4 1.2 mM; NaHCO3 25 mM; glucose 10 mM; bovine serum albumin 0.001%. The force of contraction is detected with Statham UC2 cells, amplified and digitized via A/D converters (DAS-1802 HC, Keithley Instruments, Munich) and recorded in parallel on chart recorders. Contractions are induced by addition of phenylephrine.
After several (generally 4) control cycles, the substance to be investigated is added in each further run in increasing dosage, and the level of the contraction achieved under the influence of the test substance is compared with the level of the contraction reached in the last preceding run. The concentration necessary to reduce the contraction reached in the preceding control by 50% is calculated from this (IC50). The standard application volume is 5 μl. The proportion of DMSO in the bath solution corresponds to 0.1%.

[2] = target: soluble guanylate cyclase (sGC) (Rattus norvegicus (Rat), UniProt P20595); assay: Stimulation of sGC enzyme activity (PPi detection, luciferase); format: biochemical; details: sGC enzyme in vitro
Chain of soluble guanylate cyclase (sGC) (P20595 whole entry): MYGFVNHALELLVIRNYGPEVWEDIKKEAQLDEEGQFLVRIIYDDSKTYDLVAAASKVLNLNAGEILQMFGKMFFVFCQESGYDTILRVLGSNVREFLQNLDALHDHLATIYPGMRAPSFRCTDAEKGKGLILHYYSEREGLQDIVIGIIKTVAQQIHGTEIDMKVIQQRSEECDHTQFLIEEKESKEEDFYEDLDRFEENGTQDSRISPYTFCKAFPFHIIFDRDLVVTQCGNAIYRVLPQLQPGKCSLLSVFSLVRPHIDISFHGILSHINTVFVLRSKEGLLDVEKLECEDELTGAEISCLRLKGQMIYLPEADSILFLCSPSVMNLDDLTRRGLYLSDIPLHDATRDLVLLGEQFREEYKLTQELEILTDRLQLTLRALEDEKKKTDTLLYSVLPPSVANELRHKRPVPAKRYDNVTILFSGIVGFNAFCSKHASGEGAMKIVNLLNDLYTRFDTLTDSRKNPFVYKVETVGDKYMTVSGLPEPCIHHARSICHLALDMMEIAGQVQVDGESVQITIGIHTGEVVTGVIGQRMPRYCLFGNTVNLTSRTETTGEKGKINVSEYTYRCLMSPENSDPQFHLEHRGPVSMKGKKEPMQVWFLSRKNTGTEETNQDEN
Chain of soluble guanylate cyclase (sGC) (P19686 whole entry partner): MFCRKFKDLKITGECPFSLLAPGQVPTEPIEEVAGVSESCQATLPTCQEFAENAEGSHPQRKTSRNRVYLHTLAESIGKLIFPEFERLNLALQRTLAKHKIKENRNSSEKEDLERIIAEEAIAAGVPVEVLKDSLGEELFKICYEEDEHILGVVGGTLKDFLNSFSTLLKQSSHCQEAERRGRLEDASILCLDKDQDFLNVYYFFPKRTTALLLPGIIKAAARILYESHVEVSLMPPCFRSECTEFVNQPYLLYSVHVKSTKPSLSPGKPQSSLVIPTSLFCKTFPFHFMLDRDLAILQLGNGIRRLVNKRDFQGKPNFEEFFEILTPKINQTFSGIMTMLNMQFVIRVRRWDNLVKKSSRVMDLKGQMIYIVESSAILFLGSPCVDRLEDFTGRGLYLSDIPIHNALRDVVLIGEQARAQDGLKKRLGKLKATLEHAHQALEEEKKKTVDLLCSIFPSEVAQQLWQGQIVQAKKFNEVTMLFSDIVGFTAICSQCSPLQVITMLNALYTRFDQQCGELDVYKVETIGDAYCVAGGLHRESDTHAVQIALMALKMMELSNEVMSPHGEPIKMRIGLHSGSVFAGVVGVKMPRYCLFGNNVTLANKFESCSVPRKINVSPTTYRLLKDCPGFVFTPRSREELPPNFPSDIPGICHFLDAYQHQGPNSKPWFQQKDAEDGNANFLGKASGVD
Procedure: Soluble guanylate cyclase (sGC) converts on stimulation GTP into cGMP and pyrophosphate (PPi). PPi is detected with the aid of the assay described below. The signal produced in the assay increases as the reaction progresses and serves as a measure of the sGC enzyme activity under the given stimulation.
To carry out the assay, 29 μl of enzyme solution [0-10 nM soluble guanylate cyclase (prepared according to Hönicka et al, J. Mol. Med. 77, 14-23 (1999)) in 50 mM TEA, 2 mM MgC2, 0.1% BSA (fraction V), 0.005% Brij®, pH 7.5] are initially introduced into a microplate, and 1 μl of the substance to be tested (as a serially diluted solution in DMSO) is added. The mixture is incubated at room temperature for 10 min. Then 20 μl of detection mix [1.2 nM Firefly Luciferase (Photinus pyralis luciferase, Promega), 29 μM dehydroluciferin (prepared according to Bitler & McElroy, Arch. Biochem. Biophys. 72, 358 (1957)), 122 μM luciferin (Promega), 153 μM ATP (Sigma) and 0.4 mM DTT (Sigma) in 50 mM TEA, 2 mM MgCl2, 0.1% BSA (fraction V), 0.005% Brij®, pH 7.5] are added. The enzyme reaction is started by adding 20 μl of substrate solution [1.25 mM guanosine 5′-triphosphate (Sigma) in 50 mM TEA, 2 mM MgC2, 0.1% BSA (fraction V), 0.005% Brij®, pH 7.5] and measured continuously in a luminometer. The extent of the stimulation by the substance to be tested can be determined relative to the signal of the unstimulated reaction.
The activation of haem-free guanylate cyclase is examined by addition of 25 μM of 1H-1,2,4-oxadiazolo[4,3-a]quinoxalin-1-one (ODQ) to the enzyme solution and subsequent incubation for 30 minutes and compared to the stimulation of the native enzyme.

[3] = target: recombinant soluble guanylate cyclase (sGC), haem-containing (Rattus norvegicus (Rat), UniProt P20595); assay: Stimulation of recombinant soluble guanylate cyclase (sGC) in vitro, haem-containing enzyme; format: biochemical; details: for Stimulation (x-fold) of haem-containing sGC, basal: n = 5
Chain of recombinant soluble guanylate cyclase (sGC), haem-containing (P20595 whole entry): as the sequence (P20595 whole entry) above
Chain of recombinant soluble guanylate cyclase (sGC), haem-containing (P19686 whole entry partner): as the sequence (P19686 whole entry partner) above
Description: Hoenicka, E. M. Becker, H. Apeler, T. Sirichoke. H. Schroeder, R. Gerzer and J.-P. Stasch, “Purified soluble guanylyl cyclase expressed in a baculovirus/Sf9 system: Stimulation by YC-1, nitric oxide, and […]”, J. Mol. Med. 77 (1999), 14-23. The haem-free guanylate cyclase is obtained by adding Tween 20 to the sample buffer (0.5% in the final concentration).
as §1

[4] = system: recombinant guanylate cyclase reporter cell line (CHO reporter cell); assay: Action at a recombinant guanylate cyclase reporter cell line; format: cell-based; details: CHO reporter cell in vitro; read-out: MEC (minimum effective concentration), sGC-activating activity in the CHO reporter cell
Procedure: The cellular action of the compounds according to the invention is determined at a recombinant guanylate cyclase reporter cell line, as described in F. Wunder et al., Anal. Biochem. 339, 104-112 (2005).

Chain of recombinant soluble guanylate cyclase (sGC), haem-free (P20595 whole entry): as the sequence (P20595 whole entry) above
Chain of recombinant soluble guanylate cyclase (sGC), haem-free (P19686 whole entry partner): as the sequence (P19686 whole entry partner) above

- Stimulation (x-fold) of haem-free sGC, basal ([1]; 0.01 μM Example 22): 1.2 ± 0.1 x-fold
- Stimulation (x-fold) of haem-free sGC, basal ([1]; 0.1 μM Example 22): 1.6 ± 0.5 x-fold
- Stimulation (x-fold) of haem-free sGC, basal ([1]; 1.0 μM Example 22): 4.9 ± 1.5 x-fold
- Stimulation (x-fold) of haem-free sGC, basal ([1]; 10 μM Example 22): 14.2 ± 2.0 x-fold
- IC50 (saphenous artery rings): 137 nM
- MEC (minimum effective concentration), activating action at the sGC enzyme [2]: 2.4 nM
- EC50 ([2]; read-out: EC50 (concentration at 50% of maximum efficacy), activating action at the sGC enzyme): 68 nM
- Stimulation (x-fold) of haem-containing sGC, +0.01 μM DEA/NO ([3]; 0.01 μM Example 22 + 0.01 μM DEA/NO): 4.4 ± 1.3 x-fold
- Stimulation (x-fold) of haem-containing sGC, +10 μM ODQ ([3]; 0.01 μM Example 22 + 10 μM ODQ): 5.7 ± 1.6 x-fold
- Stimulation (x-fold) of haem-containing sGC, basal ([3]; 0.01 μM Example 22): 1.6 ± 0.3 x-fold
- Stimulation (x-fold) of haem-containing sGC, +0.01 μM DEA/NO ([3]; 0.1 μM Example 22 + 0.01 μM DEA/NO): 3.4 ± 0.9 x-fold
- Stimulation (x-fold) of haem-containing sGC, +10 μM ODQ ([3]; 0.1 μM Example 22 + 10 μM ODQ): 6.1 ± 1.7 x-fold
- Stimulation (x-fold) of haem-containing sGC, basal ([3]; 0.1 μM Example 22): 1.6 ± 0.5 x-fold
- Stimulation (x-fold) of haem-containing sGC, +0.01 μM DEA/NO ([3]; 1.0 μM Example 22 + 0.01 μM DEA/NO): 4.4 ± 1.4 x-fold
- Stimulation (x-fold) of haem-containing sGC, +10 μM ODQ ([3]; 1.0 μM Example 22 + 10 μM ODQ): 8.4 ± 2.2 x-fold
- Stimulation (x-fold) of haem-containing sGC, basal ([3]; 1.0 μM Example 22): 2.4 ± 1.0 x-fold
- Stimulation (x-fold) of haem-containing sGC, +0.01 μM DEA/NO ([3]; 10 μM Example 22 + 0.01 μM DEA/NO): 7.8 ± 2.5 x-fold
- Stimulation (x-fold) of haem-containing sGC, +10 μM ODQ ([3]; 10 μM Example 22 + 10 μM ODQ): 18.3 ± 5.4 x-fold
- Stimulation (x-fold) of haem-containing sGC, basal ([3]; 10 μM Example 22): 4.9 ± 1.2 x-fold
- Combination with the NO donor DEA/NO: synergistic effect on sGC stimulation ([3]; haem-containing sGC, combination with DEA/NO): no synergistic effect
- Effect of the haem-dependent sGC inhibitor ODQ on the sGC activation ([3]; haem-containing sGC, with ODQ): not blocked
SMILES: C[C@H]([C@H](C(=O)Nc1cc(C(CC(=O)O)C2CC2)ccc1Cl)c1ccc(Cl)cc1)C(F)(F)F (single isomer, unassigned; (+)) [Example 22]
- minimal effective concentration [4]: 0.0018 µM
